Values quoted from earlier work as cited in patent publication US4384994A, “Renin inhibitory peptides” (Merck & Co., Inc., priority 1981, dated 1983).

Experiments:
hog renin = settings: nephrectomized rats, after injection of hog renin; Gross et al. 1971
pepsin = pepsin (Homo sapiens, UniProt P0DJD8); settings: Umezawa et al. 1970
pepsin, sequence (P0DJD8 63-388): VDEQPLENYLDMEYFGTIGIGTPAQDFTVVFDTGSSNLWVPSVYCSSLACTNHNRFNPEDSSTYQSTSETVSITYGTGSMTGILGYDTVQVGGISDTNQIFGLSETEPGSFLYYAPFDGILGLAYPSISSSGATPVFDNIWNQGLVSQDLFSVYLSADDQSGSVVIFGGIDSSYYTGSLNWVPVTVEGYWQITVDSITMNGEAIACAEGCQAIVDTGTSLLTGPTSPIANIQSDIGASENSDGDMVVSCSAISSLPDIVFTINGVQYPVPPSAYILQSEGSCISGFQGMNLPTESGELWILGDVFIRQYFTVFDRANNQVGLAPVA

## pepstatin
Hog renin
  blood pressure in vivo: reduce blood pressure
pepsin
  inhibition of pepsin: inhibitor
